Results as given in PMC12668310, “High‐Throughput Synthesis and Screening of a Cyanimide Library Identifies Selective Inhibitors of ISG15‐Specific Protease mUSP18” (Angewandte Chemie (International Ed. in English), 2025).
“And” between values parts separate entries of the source, which are not always exact repeats. Identical values can stand only once. Like-named read-outs stand apart in the source and are kept apart here.

Target: T1, mUSP18 (Mus musculus, UniProt Q9WTV6)
T1 construct: (46-368); His-tag (N); made in house
T1 sequence (Q9WTV6 46-368): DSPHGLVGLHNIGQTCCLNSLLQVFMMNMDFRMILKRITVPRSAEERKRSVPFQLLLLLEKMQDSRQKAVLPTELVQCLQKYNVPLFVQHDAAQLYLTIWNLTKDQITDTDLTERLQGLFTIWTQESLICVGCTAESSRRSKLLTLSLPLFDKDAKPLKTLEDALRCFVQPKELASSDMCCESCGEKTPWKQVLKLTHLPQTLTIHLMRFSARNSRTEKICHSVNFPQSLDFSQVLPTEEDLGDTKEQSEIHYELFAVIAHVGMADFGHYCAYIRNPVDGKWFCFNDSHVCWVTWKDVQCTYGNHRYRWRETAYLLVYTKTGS
Assay: High-throughput screening, ISG15ct-RhoMP, single dose 1.25 µM
Assay type: biochemical, murine
Settings: mUSP18 %inhibition

[1] = carboxylic acid (CA) building block alone, read-out: %inh CA only
[2] = carboxylic acid (CA) with coupling reagents DIC/HOBT, read-out: %inh CA + DIC/HOBT

inhibition at 1.25 µM [1] | inhibition at 1.25 µM [2] | %inh CA only (carboxylic acid (CA) building block alone) | %inh CA + DIC/HOBT (carboxylic acid (CA) with coupling reagents DIC/HOBT) | SMILES
-3.12% | 0.58% | – | – | O=C(O)c1ncn(-c2ccccc2)n1 [CA437]
-7.25% | -2.38% | – | – | O=C(O)C1CCCN(c2ccc(Cl)nn2)C1 (centres unmarked) [CA438]
-3.97% | 20.1% | – | – | O=C(O)c1cn[nH]c1C1CC1 [CA439]
-5.84% | -2.29% | – | – | O=C(O)C1CCCN(c2ncccc2C(F)(F)F)C1 (centres unmarked) [CA440]
-3.61% | -0.87% | – | – | O=C(O)c1nn(-c2ccccc2)c(=O)[nH]c1=O [CA441]
-4.05% | -2.36% | – | – | Cn1cc(-c2nc(C(=O)O)cs2)cn1 [CA442]
7.6% | 12% | – | – | O=C(O)c1ncsc1Cc1ccccc1 [CA443]
-6.76% | -0.57% | – | – | O=C(O)C1CCN(C(=O)N2CCOCC2)CC1 [CA444]
-7.28% | 2.15% | – | – | Cc1n[nH]c(C)c1Cc1ccc(C(=O)O)o1 [CA445]
-10.1% | 26.8% | – | – | CC1=NN(c2cccc(Br)c2)C(=O)C1CC(=O)O (centres unmarked) [CA446]
9.91% | -2.33% | – | – | CCn1ccc(-c2cc(C(=O)O)no2)n1 [CA447]
5.37% | -5.91% | – | – | O=C(O)c1ccc(Cn2ccccc2=O)o1 [CA448]
2.37% | -9.4% | – | – | CC(C)n1nccc1[1C@@H]1OCC[1C@H]1C(=O)O [CA449]
0.56% | -9.05% | – | – | O=C(O)c1cnc(-c2cccnc2)s1 [CA450]
-1.56% | -6.2% | – | – | O=C(O)c1ccc(=O)n(C2CC2)c1 [CA451]
-2.07% | -8.76% | – | – | O=C(O)C1CC(=O)N(OCc2ccccc2)C1 (centres unmarked) [CA452]
-0.89% | -4.65% | – | – | O=C(O)CC1CCN(c2ccc(Cl)nn2)CC1 [CA453]

inhibition at 1.25 µM [1] | inhibition at 1.25 µM [2] | %inh CA only (carboxylic acid (CA) building block alone) | %inh CA + DIC/HOBT (carboxylic acid (CA) with coupling reagents DIC/HOBT) | SMILES
0.84% | -7.57% | – | – | O=C(O)Cc1csc(C2CC2)n1 [CA455]
1.15% | -2.8% | – | – | O=C(O)c1cc(C2CCC2)on1 [CA456]
0.68% | -4.48% | – | – | O=C(O)C(c1ccccc1)n1cccc1 (centres unmarked) [CA457]
2.77% | -1.69% | – | – | O=C(O)c1nc(N2CCOCC2)ncc1Cl [CA458]
-0.93% | -2.17% | – | – | O=C(O)C1CCCCN1S(=O)(=O)c1ccc(Br)s1 (centres unmarked) [CA459]
-1.54% | -0.28% | – | – | CC(C)c1cc(C(=O)O)n(-c2ccccc2)n1 [CA460]
-2.23% | -2.33% | – | – | O=C(O)c1ccc(-c2ncon2)cc1 [CA461]
-0.33% | -1.15% | – | – | O=C(O)C(CCc1ccccc1)c1ccccc1 (centres unmarked) [CA462]
-1.44% | -3.17% | – | – | O=C(O)c1cccc(-c2ncon2)c1 [CA463]
-0.15% | -1.5% | – | – | COC1CC(C(=O)O)N(C(=O)OCc2ccccc2)C1 (centres unmarked) [CA464]
2.43% | 2.72% | – | – | Cc1cccc(COc2cccc(C(=O)O)c2)c1 [CA465]
-0.57% | -1.79% | – | – | Cn1cc(-c2cc(C(=O)O)no2)cn1 [CA466]
-0.52% | 2.94% | – | – | O=C(O)Cc1ccc(NS(=O)(=O)c2cccc(C(F)(F)F)c2)cc1 [CA467]
-4.17% | 7% | – | – | CC1CCCCN1S(=O)(=O)c1ccccc1C(=O)O (centres unmarked) [CA468]
-5.44% | 4.89% | – | – | O=C(O)c1ccc(S(=O)(=O)N2CCCCCC2)cc1 [CA469]
– | – | 100.10% and 99.62% | 99.98% and 100.30% | CCN1C(=O)C=CC1=O [NEM]

SMILES | inhibition at 1.25 µM [1] | inhibition at 1.25 µM [2] | %inh CA only (carboxylic acid (CA) building block alone) | %inh CA + DIC/HOBT (carboxylic acid (CA) with coupling reagents DIC/HOBT)
O=C(O)c1cnn(CC2CCC2)c1 [CA454] | -1.23% | -8.94% | – | –
